Experimental findings from US20250262315A1 (priority 2021, published 2025) are described below.

In series [1] the target is T1, human neutrophil elastase (Homo sapiens, UniProt P08246).
T1 construct: purchased MilliporeSigma
T1 sequence (P08246 30-267): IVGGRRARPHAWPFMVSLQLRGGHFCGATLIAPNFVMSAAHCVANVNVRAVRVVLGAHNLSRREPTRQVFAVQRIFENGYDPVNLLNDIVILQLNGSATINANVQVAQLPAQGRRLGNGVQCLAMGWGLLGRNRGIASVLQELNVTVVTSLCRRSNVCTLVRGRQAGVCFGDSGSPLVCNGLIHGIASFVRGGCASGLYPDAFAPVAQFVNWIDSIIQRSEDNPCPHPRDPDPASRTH
Kind of series: Human neutrophil protease-mediated cleavage assay using pyrene probes: neutrophil elastase. It is filed as biochemical. The conditions noted are these: 37° C.; for stability against degradation mediated by neutrophil elastase or mouse plasma (in words): additional probes; for stability against human neutrophil elastase-mediated degradation (in words): pyrene probes; for % intact probe, Neutrophil elastase: after incubation for 24 h, n = 2, mean ± SEM. The procedure: (§1) Human neutrophil protease-mediated cleavage assay using pyrene probes. Each test compound (10 mM in DMSO, 2 μL) was mixed with 97 μL of tris-buffered saline (TBS, pH 7.4) and 1 μL of 1-pyrenemethylamine (10 mM in DMSO, internal standard). The mixture was incubated at 37° C. for 10 min. Human neutrophil elastase (40 ng μL^−1, 20 μL in TBS, MilliporeSigma), human proteinase 3 (250 ng μL^−1, 5 μL in TBS, MilliporeSigma) or human cathepsin G (330 ng μL^−1, 5 μL in TBS, MilliporeSigma) was added to the test compound mixture in 1:1 volume ratio, followed by incubation at 37° C. Aliquots (5 μL) were collected at each time point (0, 1, 3, 6, and 24 h for elastase; 0 and 24 h for proteinase 3 and cathepsin G). Cold acetonitrile containing 1% formic acid (25 μL) was added to precipitate proteins. The mixture was then kept at −20° C. for 30 min. Precipitated proteins were pelleted by centrifugation (15,000×g, 4° C., 30 min) and supernatant of each sample was analyzed for quantification by analytical HPLC (UV absorbance at 342 nm). The amount of each probe was normalized to the peak area of the internal standard. All assays were performed at least three times in technical duplicate, and data shown are representative of the replicates.

Series [2] in a line: Pooled healthy human plasma. The conditions noted are these: 37° C., up to 96 h.
Another series can be described thus: monkey cynomolgus plasma. The settings on record: 37° C., up to 96 h.
Series [3] concerns Human neutrophil elastase. The series is described as follows: human neutrophil elastase in tris-buffered saline (TBS, pH 7.4). The conditions noted are these: 37° C., up to 24 h.
Series [4] has as its system human cathepsin G. The series is described as follows: human cathepsin G in tris-buffered saline (TBS, pH 7.4). The settings on record: 37° C., up to 24 h.
Series [5] concerns human proteinase 3. Kind of series: human proteinase 3 in tris-buffered saline (TBS, pH 7.4). The conditions noted are these: 37° C., up to 24 h.
The nature of series [6]: Plasma stability test using pyrene probes, BALB/c mouse plasma. It is filed as in vitro ADME. The settings on record: 37° C.; for stability in undiluted BALB/c plasma (in words): pyrene probes; for % intact probe, 48 h incubation, Mouse / % intact probe, 96 h incubation, Mouse: undiluted mouse plasma; for % intact probe, 96 h incubation, Mouse: 96 h (4-day). The method, then:
(§2) Plasma stability test using pyrene probes. Each test compound (10 mM in DMSO, 2 μL) was mixed with 1 μL of 1-pyrenemethylamine (10 mM in DMSO, internal standard) and incubated at 37° C. for 10 min. Pooled healthy human plasma, monkey cynomolgus plasma or BALB/c mouse plasma (197 μL, Innovative Research) was added to the mixture, followed by incubation at 37° C. Aliquots (5 μL) were collected at each time point (0, 48, and 96 h for human and monkey cynomolgus plasma; 0, 1, 6, 24, 48, and 96 h for BALB/c mouse plasma) and 25 μL of cold acetonitrile containing 1% formic acid was added to precipitate proteins. The mixture was then kept at −20° C. for 30 min. Precipitated proteins were separated by centrifugation (15,000×g, 4° C., 30 min) and supernatant of each sample was obtained and analyzed for quantification by analytical HPLC as described above. All assays were performed at least three times in technical duplicate, and data shown are representative of the replicates.

Series [7] has as its target T2, human proteinase 3 (Homo sapiens, UniProt P24158).
T2 construct: purchased MilliporeSigma
T2 sequence (P24158 28-248): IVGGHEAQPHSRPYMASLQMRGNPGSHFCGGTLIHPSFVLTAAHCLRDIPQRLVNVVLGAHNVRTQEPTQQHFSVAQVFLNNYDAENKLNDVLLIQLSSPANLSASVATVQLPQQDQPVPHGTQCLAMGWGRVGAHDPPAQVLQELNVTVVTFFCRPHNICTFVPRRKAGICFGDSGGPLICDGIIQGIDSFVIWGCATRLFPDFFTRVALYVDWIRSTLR
Kind of series: Human neutrophil protease-mediated cleavage assay using pyrene probes: proteinase 3. The conditions noted are these: for % intact probe, Proteinase 3: after incubation for 24 h, 37° C., n = 2, mean ± SEM; for resistance to cleavage by human proteinase 3 (in words): pyrene probes. It is filed as biochemical. The method, then:
as §1

Series [8] is described as follows: Plasma stability test using pyrene probes, monkey plasma. The class given is in vitro ADME, cynomolgus monkey. The settings on record: for % intact probe, 48 h incubation, Monkey / % intact probe, 96 h incubation, Monkey: undiluted monkey plasma, 37° C. The procedure: as §2
Series [9] can be described thus: Plasma stability test using pyrene probes, human plasma. The class given is in vitro ADME. The settings on record: for % intact probe, 48 h incubation, Human / % intact probe, 96 h incubation, Human: undiluted human plasma, 37° C. The procedure: as §2
For series [10], the target named is T3, human cathepsin G (Homo sapiens, UniProt P08311).
T3 construct: purchased MilliporeSigma
T3 sequence (P08311 21-244): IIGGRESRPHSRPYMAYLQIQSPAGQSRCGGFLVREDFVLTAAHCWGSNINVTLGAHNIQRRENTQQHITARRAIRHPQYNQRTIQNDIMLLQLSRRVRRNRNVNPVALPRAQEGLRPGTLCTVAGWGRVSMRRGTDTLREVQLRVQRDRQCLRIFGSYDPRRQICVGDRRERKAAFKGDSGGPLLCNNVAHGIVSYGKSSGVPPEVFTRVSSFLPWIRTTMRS
The series is described as follows: Human neutrophil protease-mediated cleavage assay using pyrene probes: cathepsin G. The class given is biochemical. The conditions noted are these: for % intact probe, Cathepsin G: after incubation for 24 h, 37° C., n = 2, mean ± SEM. The procedure: as §1

Take Ac-Val-(N-Me)Cit-PABC-sar-pyrene [S1d]: the “stability against degradation mediated by neutrophil elastase or mouse plasma (in words)” value (from here on “stability against degradation mediated”) in [1] was “instability”.

In the case of EGCit, the not cleaved in series [2] is listed as 100.3 ± 5.5 % intact probe after 96 h; in the series “monkey cynomolgus plasma”, 98.8 ± 1.6 % intact probe after 96 h; in series [3], 99.2 ± 0.3 % intact probe after 24 h; with human cathepsin G [4], 100.0 ± 1.8 % intact probe after 24 h; in the series with human proteinase 3 [5], 98.0 ± 1.1 % intact probe after 24 h.

In the case of “Ac-Glu-Leu-Cit-PABC-sar-pyrene [probe 3c]”, in [1], the “stability against human neutrophil elastase-mediated degradation (in words)” value was “marginal or almost no degradation”.

On to “Ac-Glu-Gly-Cit-PABC-sar-pyrene [EGCit 3a]”, for which, in [6], the “stability in undiluted BALB/c plasma (in words)” value is recorded as “improved stability compared to EVCit probe 2”; the “% intact probe, 48 h incubation, Mouse” value is 69.2%; the “% intact probe, 96 h incubation, Mouse” value came out at 40.3%. Also, the “% intact probe, 96 h incubation, Mouse” value in [6] (listed as EGCit probe 3a) worked out at 40%. Besides, on human proteinase 3 [7], the “% intact probe, Proteinase 3” value amounted to 98.0 ± 1.1% and the “resistance to cleavage by human proteinase 3 (in words)” value is listed as “completely intact”. Also, the “degradation in monkey plasma (in words)” value in series [8] (pyrene probes) is given as “completely withstood degradation”. In series [8], the “% intact probe, 48 h incubation, Monkey” value amounted to 98.7% and the “% intact probe, 96 h incubation, Monkey” value is 98.8%. For the same substance, in series [1], the “% intact probe, Neutrophil elastase” value was determined as 99.2 ± 0.3% and the “stability against human neutrophil elastase-mediated degradation (in words)” value was “marginal or almost no degradation”. For the same substance, the “degradation in human plasma (in words)” value in series [9] (pyrene probes) was “completely withstood degradation”. In addition, in [9], the “% intact probe, 48 h incubation, Human” value worked out at 96.5% and the “% intact probe, 96 h incubation, Human” value is recorded as 100.3%. The “% intact probe, Cathepsin G” value at human cathepsin G [10] was 100.0 ± 1.8%. For the same substance, the “resistance to cleavage by cathepsin G (in words)” value at human cathepsin G [10] (pyrene probes) is “completely intact”.

For the substance VCit-PABC-pyrene, the cleaved bond entry in [3] is “valine-citrulline, major”.

Consider EVCit, for which the not cleaved worked out at 91.1 ± 1.1 % intact probe after 96 h in series [2] and 95.8 ± 1.8 % intact probe after 96 h in “monkey cynomolgus plasma”. For the same substance, the cleaved bond result in series [3] is “valine-citrulline”.

For the substance “Ac-Glu-Val-(N-Me)Cit-PABC-sar-pyrene [EV(N-Me)Cit 3e]”, in series [6], the “stability in undiluted BALB/c plasma (in words)” value is “improved stability compared to EVCit probe 2”; the “% intact probe, 48 h incubation, Mouse” value amounted to 37.8%; the “% intact probe, 96 h incubation, Mouse” value was found to be 12.0%. Further, on human proteinase 3 [7], the “% intact probe, Proteinase 3” value is 84.4 ± 0.9% and the “resistance to cleavage by human proteinase 3 (in words)” value was “partially degraded”. Besides, in [8], the “% intact probe, 48 h incubation, Monkey” value is reported as 97.8% and the “% intact probe, 96 h incubation, Monkey” value stood at 91.9%. Moreover, in [1], the “% intact probe, Neutrophil elastase” value turned out to be 99.0 ± 2.4% and the “stability against human neutrophil elastase-mediated degradation (in words)” value is recorded as “marginal or almost no degradation”. In series [9], the “% intact probe, 48 h incubation, Human” value is reported as 99.5% and the “% intact probe, 96 h incubation, Human” value worked out at 86.4%. Moreover, the “% intact probe, Cathepsin G” value on human cathepsin G [10] is reported as 99.6 ± 0.3%.

“Ac-Glu-Ile-Cit-PABC-sar-pyrene [probe 3d]”: in [1], the “stability against human neutrophil elastase-mediated degradation (in words)” value is “complete degradation”.

Turning to Ac-Gly-Cit-PABC-sar-pyrene [probe 3f], the “stability in undiluted BALB/c plasma (in words)” value in series [6] is given as “less stable than the EGCit probe 3a”. In addition, in series [1], the “stability against human neutrophil elastase-mediated degradation (in words)” value is “marginal or almost no degradation”.

ELCit: in [3], the not cleaved result is reported as “marginal or almost no degradation”.

With EV(N-Me)Cit-PABC-pyrene, the not cleaved came out at 91.9 ± 1.2 % intact probe after 96 h in the series “monkey cynomolgus plasma”, 99.0 ± 2.4 % intact probe after 24 h in series [3] and 99.6 ± 0.3 % intact probe after 24 h with human cathepsin G [4].

Turning to “Ac-Glu-Ala-Cit-PABC-sar-pyrene [probe 3b]”, in series [6], the “stability in undiluted BALB/c plasma (in words)” value was “improved stability compared to EVCit probe 2”. For the same substance, the “stability against human neutrophil elastase-mediated degradation (in words)” value in series [1] is recorded as “complete degradation”.

In the case of Ac-Glu-Phe-Cit-PABC-sar-pyrene [S1a], in series [1], the “stability against degradation mediated” value is on record as “instability”.

GCit: the not cleaved result in series [3] is on record as “marginal or almost no degradation”.

As for “Ac-Glu-(N-Me)Val-Cit-PABC-sar-pyrene [S1b]”, the “stability against degradation mediated” value in [1] is “instability”.
